Experimental data reported in US20260265229A1, “Small Molecule Modulators of IL-17A, Methods of Making and Methods of Using Thereof” (Ascletis Pharma (China) Co., Limited, priority 2023, published 2026).

biological target: T1, IL-17A (Homo sapiens, UniProt Q16552); test: HEK-Blue IL-17 cell assay (SEAP reporter, rhIL-17A/A stimulation); assay type: cell-based; settings: HEK-Blue IL-17 cells with rhIL-17A/A, 20 hours at 37° C., absorbance at 405 nm
T1 construct: purchased R&D 7955-IL
T1 sequence (Q16552 24-155): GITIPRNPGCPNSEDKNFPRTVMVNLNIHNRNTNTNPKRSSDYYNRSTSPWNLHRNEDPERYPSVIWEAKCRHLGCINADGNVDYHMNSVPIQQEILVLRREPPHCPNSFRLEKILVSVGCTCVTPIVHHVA
Method: 1. The test Compounds were 3-fold serial diluted from 10 mM for 10 doses in DMSO.
2. Prepare Reference Compounds (IL-17A-Inhibitor-1) were 3-fold serial diluted from 1 mM for 10 doses in DMSO.
3. Prepare 1000× Positive control (1 mM IL-17A-Inhibitor-1) and 1000× vehicle control (100% DMSO).
• a) Cells were cultured as the HEK-Blue™ IL-17 technical data sheet recommended. HEK-Blue IL-17 cells were assayed in the exponential growth phase. • b) Aspirate growth medium and rinse cells twice with PBS to remove phenol red. • c) Resuspend cells in test medium to a proper concentration. • d) Only cells with viability greater than 90% were used for assays. • e) Transfer 25nl of compound dilutions into 384-well assay plates using Echo655; • f) Seed 25 ul of HEK-Blue IL-17 cells at 8,000 cells/well into 384-well plate with rhIL-17A/A. • g) Cells were incubated for 20 hours at 37° C. under 5% CO2 atmosphere. • h) Transfer 2 ul of cells supernatant into per well of 384-well assay plates. • i) Add 20 ul of PNPP substrate. • j) Measure the Absorbance at 405 nm on Envision 2105 plate reader.
RLU signal (LUMempd) is calculated for each well. % Inhibition is calculated as follow: […]
Signalave_pc: The average signal for the positive controls across the plate.
Signalave_vc: The average signal for negative controls across the plate.
Calculate IC50 and Plot effect-dose curve of cmpds:
Calculate IC50 by fitting % Inhibition values and log of compound concentrations to nonlinear regression (dose response−variable slope) with Graphpad 8.0.

Compound	IC50 [nM]
CC(=O)N1CC(C(=O)N2CC(F)(F)C2)C(c2cc(F)c3nc([C@@H](NC(=O)c4ccnn4C(C)C)C4CCCCCC4)[nH]c3c2)C1 (stereo partly drawn) [Example 51]	118
CC(=O)N1CC(c2ccc(NC(=O)[C@@H](NC(=O)c3ccnn3C(C)C)C(C3CC3)C3CC3)cc2)[C@@H](C(=O)N2CC(F)(F)C(F)(F)C2)C1 (stereo partly drawn) [Example 63]	132
CC(=O)N1C[C@H](C(=O)N2CC(F)(F)C(F)(F)C2)[C@@H](c2ccc(NC(=O)[C@@H](NC(=O)c3ccnn3C(C)C)C3CCCCCC3)cc2)C1 [Example 54]	28.6
COC(=O)N1C[C@H](C(=O)N2CC(F)(F)C(F)(F)C2)[C@@H](c2ccc(NC(=O)[C@@H](NC(=O)c3ccnn3C(C)C)C3CCCCCC3)cc2F)C1 [Example 61]	66.8
COC(=O)N1C[C@H](c2ccc(NC(=O)[C@@H](NC(=O)c3ccnn3C(C)C)C3CCCCCC3)cc2)[C@H](C(=O)N2CC(F)(F)C2)C1 [Example 1, methyl (3S,4S)-3-(4-((S)-2-cycloheptyl-2-(1-isopropyl-1H-pyrazole-5-carboxamido)acetamido)phenyl)-4-(3,3-difluoroazetidine-1-carbonyl)pyrrolidine-1-carboxylate]	15.3
CC(=O)N1CC(c2ccc(NC(=O)[C@@H](NC(=O)c3ccnn3C(C)C)C3CCCCCC3)cc2)[C@H](C(=O)N2CC(F)(F)C(F)(F)C2)C1 (stereo partly drawn) [Cis-62]	39.6
CC(C)n1nccc1C(=O)N[C@H](c1nc2c(F)cc(C3=C(C(=O)N4CC(F)(F)C4)CN(C(=O)OCc4ccccc4)C3)cc2[nH]1)C1CCCCCC1 [Example 50]	420
CC(=O)N1C[C@H](c2ccc(NC(=O)[C@@H](NC(=O)c3ccnn3C(C)C)C3CCCCCC3)cc2)[C@H](C(=O)NCC(F)(F)F)C1 [Example 66]	44.4
CC(=O)N1C[C@H](c2ccc(NC(=O)[C@@H](NC(=O)c3ccnn3C(C)C)C3CCCCCC3)cc2)[C@H](C(=O)N2CC(F)(F)C(F)(F)C2)C1 [Example 64]	11.5
COC(=O)N1CC(C(=O)N2CC(F)(F)C2)C(c2cc(F)c3nc([C@@H](NC(=O)c4ccnn4C(C)C)C4CCCCCC4)[nH]c3c2)C1 (stereo partly drawn) [Example 53]	532
CC(C)n1nccc1C(=O)N[C@H](C(=O)Nc1ccc([C@H]2CN(C(=O)N(C)C)C[C@@H]2C(=O)N2CC(F)(F)C(F)(F)C2)cc1)C1CCCCCC1 [Example 58]	39.3

The remaining molecules from weak to strong by IC50, led by results:

IC50 [nM]	Compound
6040	COC(=O)N1CC(C(=O)N2CC(F)(F)C2)=C(c2ccc3cnc([C@@H](NC(=O)c4ccnn4C(C)C)C4CCC(F)(F)CC4)nc3c2)C1 [Example 46]
1860	CC(=O)N1C[C@H](C(=O)N2CCN(C)CC2)[C@@H](c2ccc(NC(=O)[C@@H](NC(=O)c3ccnn3C(C)C)C3CCCCCC3)cc2)C1 [Example 49]
1450	COC(=O)N1C[C@H](C(=O)N2CC(F)(F)C2)[C@@H](c2ccc(NC(=O)[C@@H](NC(=O)c3nonc3C)C3CCC(F)(F)CC3)cc2)C1 [Example 56]
944	COC(=O)N1C[C@H](C(=O)N2CC(F)(F)C2)[C@@H](c2ccc(NC(=O)[C@@H](NC(=O)c3ccnn3C(C)C)C3CCC(F)(F)CC3)cc2)C1 [Example 55]
315	CC(=O)N1C[C@H](C(=O)N2CC(F)(F)C(F)(F)C2)[C@@H](c2ccc(NC(=O)[C@@H](NC(=O)c3ccnn3C(C)C)C3CCC(F)(F)CC3)cc2)C1 [Example 60]
143	CC(C)n1nccc1C(=O)N[C@H](C(=O)Nc1ccc([C@H]2CN(C(=O)CCC(F)(F)F)C[C@@H]2C(=O)N2CC(F)(F)C(F)(F)C2)cc1)C1CCCCCC1 [Example 59]
110	COC(=O)N1C[C@H](C(=O)N2CC(F)(F)C2)[C@@H](c2ccc(NC(=O)[C@@H](NC(=O)c3ccnn3C(C)C)C3CCCCCC3)cc2)C1 [Example 2]
103	CC(=O)N1C[C@H](C(=O)NCC(C)(F)F)[C@@H](c2ccc(NC(=O)[C@@H](NC(=O)c3ccnn3C(C)C)C3CCCCCC3)cc2)C1 [Example 52]
69	CC(=O)N1C[C@H](c2ccc(NC(=O)[C@@H](NC(=O)c3ccnn3C(C)C)C3CCCCCC3)cc2)[C@H](C(=O)N2CC(F)(F)C2)C1 [Example 6]
57.2	CC(=O)N1C[C@H](C(=O)N2CC(F)(F)C(F)(F)C2)[C@H](c2ccc(NC(=O)[C@@H](NC(=O)c3ccnn3C(C)C)C3CCCCCC3)cc2)C1 [Example 65]
48.6	CC(=O)N1C[C@H](C(=O)N(C)CC(F)(F)F)[C@@H](c2ccc(NC(=O)[C@@H](NC(=O)c3ccnn3C(C)C)C3CCCCCC3)cc2)C1 [Example 68]
46.8	COC(=O)N1C[C@H](C(=O)N2CC(F)(F)C(F)(F)C2)[C@@H](c2ccc(NC(=O)[C@@H](NC(=O)c3ccnn3C(C)C)C3CCCCCC3)cc2)C1 [Example 57]
31.4	CC(=O)N1C[C@H](c2ccc(NC(=O)[C@@H](NC(=O)c3ccnn3C(C)C)C3CCCCCC3)c(F)c2)[C@H](C(=O)N2CC(F)(F)C(F)(F)C2)C1 [Example 67]
